Laboratory results from article PMC8185074, “Anchor extension: a structure-guided approach to design cyclic peptides targeting enzyme active sites” (Nature Communications, 2021).
Peptide text beside a SMILES is read from it.

Legend:
HDAC2 = molecular target: T1, HDAC2 (Homo sapiens, UniProt Q92769); assay: HDAC2 inhibition, full IC50 measurement (Reaction Biology; fluorogenic p53 peptide RHKK(Ac)AMC); format: biochemical
T1 construct: purchased Reaction Biology Corporation (assay run by the CRO)
Method: (§1) The assay was performed using 50 μM fluorogenic peptide from p53 residues 379-382 [RHKK(Ac)AMC] in a base reaction buffer of 50 mM Tris-HCl at pH 8.0, 137 mM NaCl, 2.7 mM KCl, 1 mM MgCl2, and freshly added 1 mg/ml BSA and 1% DMSO. Peptides were first dissolved in DMSO and then added to the reaction mixture with the enzyme using acoustic technique, enough to reach the desired concentration for that assay point. Peptide concentrations were calculated based on mass of lyophilized peptide and its molecular weight. The substrate was then added and incubated for 1 hour at 30 °C in a sealed container. After the incubation, developer was added to stop the reaction and develop color. Kinetic measurements were then performed for 20 min with Envision with 5 min intervals (Ex/Em = 360/460 nm). The endpoint after plateau was taken for IC50 measurement.
(§2) In cases where duplicate measures are used, average data is reported in the main text or Supplementary Tables.

HDAC6 = molecular target: T2, HDAC6 (Homo sapiens, UniProt Q9UBN7); assay: HDAC6 inhibition, full IC50 measurement (Reaction Biology; fluorogenic p53 peptide RHKK(Ac)AMC); format: biochemical
T2 construct: purchased Reaction Biology Corporation (assay run by the CRO)
T2 sequence (Q9UBN7 1-1215): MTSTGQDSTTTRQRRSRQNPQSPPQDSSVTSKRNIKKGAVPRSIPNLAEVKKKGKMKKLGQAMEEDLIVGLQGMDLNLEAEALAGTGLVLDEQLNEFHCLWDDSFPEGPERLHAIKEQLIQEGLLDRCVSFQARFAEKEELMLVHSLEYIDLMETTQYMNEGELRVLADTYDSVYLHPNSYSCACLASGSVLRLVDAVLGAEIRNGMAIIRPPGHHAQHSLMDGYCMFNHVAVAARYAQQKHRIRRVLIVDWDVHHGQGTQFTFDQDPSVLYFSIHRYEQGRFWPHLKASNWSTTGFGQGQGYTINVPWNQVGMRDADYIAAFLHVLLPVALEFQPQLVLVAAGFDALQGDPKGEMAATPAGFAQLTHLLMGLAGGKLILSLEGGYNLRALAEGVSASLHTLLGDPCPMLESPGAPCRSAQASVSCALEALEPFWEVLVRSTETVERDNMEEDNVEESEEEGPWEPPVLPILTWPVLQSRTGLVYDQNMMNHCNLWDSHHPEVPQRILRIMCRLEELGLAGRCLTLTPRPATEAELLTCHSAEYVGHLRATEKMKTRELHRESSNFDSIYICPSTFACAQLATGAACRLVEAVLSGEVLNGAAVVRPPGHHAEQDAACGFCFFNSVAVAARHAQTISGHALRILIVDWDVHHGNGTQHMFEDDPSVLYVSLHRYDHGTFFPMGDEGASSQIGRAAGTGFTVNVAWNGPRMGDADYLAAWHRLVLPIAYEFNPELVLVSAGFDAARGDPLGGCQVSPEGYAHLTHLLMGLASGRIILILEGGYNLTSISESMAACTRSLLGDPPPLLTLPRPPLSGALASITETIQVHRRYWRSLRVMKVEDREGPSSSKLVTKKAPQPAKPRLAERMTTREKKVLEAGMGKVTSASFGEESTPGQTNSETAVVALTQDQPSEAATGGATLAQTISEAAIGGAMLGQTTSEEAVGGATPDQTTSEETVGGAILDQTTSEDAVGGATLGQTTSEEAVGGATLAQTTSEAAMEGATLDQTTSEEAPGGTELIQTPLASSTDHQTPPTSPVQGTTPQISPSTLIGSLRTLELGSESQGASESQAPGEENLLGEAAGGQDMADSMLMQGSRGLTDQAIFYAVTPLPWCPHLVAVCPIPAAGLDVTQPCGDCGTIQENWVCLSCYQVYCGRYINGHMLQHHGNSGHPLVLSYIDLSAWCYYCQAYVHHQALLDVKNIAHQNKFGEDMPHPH
Method: as §1, §2

T1 sequence (Q92769 whole entry): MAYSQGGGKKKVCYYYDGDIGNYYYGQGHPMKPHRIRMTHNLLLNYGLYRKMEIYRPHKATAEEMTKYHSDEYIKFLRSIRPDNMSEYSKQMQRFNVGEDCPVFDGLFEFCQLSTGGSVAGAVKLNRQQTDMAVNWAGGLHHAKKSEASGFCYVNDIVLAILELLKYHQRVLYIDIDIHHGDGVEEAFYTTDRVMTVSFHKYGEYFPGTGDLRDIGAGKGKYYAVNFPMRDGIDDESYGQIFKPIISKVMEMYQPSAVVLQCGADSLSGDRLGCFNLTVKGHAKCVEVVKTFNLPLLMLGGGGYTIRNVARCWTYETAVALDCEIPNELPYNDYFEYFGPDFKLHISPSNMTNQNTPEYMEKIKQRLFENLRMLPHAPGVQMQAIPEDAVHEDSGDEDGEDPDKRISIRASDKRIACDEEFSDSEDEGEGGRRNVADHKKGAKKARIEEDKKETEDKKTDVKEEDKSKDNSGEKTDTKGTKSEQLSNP

For `CCCC[C@H]1NC(=O)[C@H](CC(=O)O)NC(=O)[C@@H](CO)NC(=O)[C@@H](C)NC(=O)[C@H](CCCCN)NC(=O)[C@@H](CCCCN)NC(=O)[C@H](Cc2ccccc2)NC(=O)[C@H](CCCCCS)NC1=O` [des4.3.1.2, SHA-Phe-dLys-Lys-dAla-dSer-Asp-dNle] (HELM PEPTIDE1{D.[CCCC[C@@H](N[*:1])C(=O)[*:2]].[O=C([C@H](CCCCCS)N[*:1])[*:2]].F.[dK].K.[dA].[dS]}$PEPTIDE1,PEPTIDE1,1:R1-8:R2$$$V2.0), the “HDAC2 activity raw data (signal)” value (HDAC2; Conc. 1.00E-05 M, t1) was 1148842, the “HDAC2 activity raw data (signal)” value (HDAC2; Conc. 1.00E-05 M, t2) was 1124925 and the “HDAC2 activity raw data (signal)” value (HDAC2; Conc. 1.11E-06 M, t1) was 1654730. For the same molecule, the “HDAC2 activity raw data (signal)” value (HDAC2; Conc. 1.11E-06 M, t2) was 1704574, the “HDAC2 activity raw data (signal)” value (HDAC2; Conc. 1.23E-07 M, t1) was 1694685 and the “HDAC2 activity raw data (signal)” value (HDAC2; Conc. 1.23E-07 M, t2) was 1708262. For the same molecule, the “HDAC2 activity raw data (signal)” value (HDAC2; Conc. 1.37E-08 M, t1) was 1883329, the “HDAC2 activity raw data (signal)” value (HDAC2; Conc. 1.37E-08 M, t2) was 1685214 and the “HDAC2 activity raw data (signal)” value (HDAC2; Conc. 1.52E-09 M, t1) was 1920222. The “HDAC2 activity raw data (signal)” value (HDAC2; Conc. 1.52E-09 M, t2) was 1770203, the “HDAC2 activity raw data (signal)” value (HDAC2; Conc. 3.33E-06 M, t1) was 1489645 and the “HDAC2 activity raw data (signal)” value (HDAC2; Conc. 3.33E-06 M, t2) was 1397108. For the same molecule, the “HDAC2 activity raw data (signal)” value (HDAC2; Conc. 3.70E-07 M, t1) was 1733657, the “HDAC2 activity raw data (signal)” value (HDAC2; Conc. 3.70E-07 M, t2) was 1639218 and the “HDAC2 activity raw data (signal)” value (HDAC2; Conc. 4.12E-08 M, t1) was 1743081. The “HDAC2 activity raw data (signal)” value (HDAC2; Conc. 4.12E-08 M, t2) was 1732768, the “HDAC2 activity raw data (signal)” value (HDAC2; Conc. 4.57E-09 M, t1) was 1828637 and the “HDAC2 activity raw data (signal)” value (HDAC2; Conc. 4.57E-09 M, t2) was 1698186. For the same molecule, the “HDAC2 activity raw data (signal)” value (HDAC2; Conc. 5.08E-10 M, t1) was 1916889, the “HDAC2 activity raw data (signal)” value (HDAC2; Conc. 5.08E-10 M, t2) was 1862597 and the “6-Selectivity: fold potency for HDAC6 over HDAC2” value (HDAC6) was greater than 100 fold. The “HDAC6 activity raw data (signal)” value (HDAC6; Conc. 1.00E-05 M, t1) was 342990, the “HDAC6 activity raw data (signal)” value (HDAC6; Conc. 1.00E-05 M, t2) was 304678 and the “HDAC6 activity raw data (signal)” value (HDAC6; Conc. 1.11E-06 M, t1) was 1091316. The “HDAC6 activity raw data (signal)” value (HDAC6; Conc. 1.11E-06 M, t2) was 1078978, the “HDAC6 activity raw data (signal)” value (HDAC6; Conc. 1.23E-07 M, t1) was 1593999 and the “HDAC6 activity raw data (signal)” value (HDAC6; Conc. 1.23E-07 M, t2) was 1556041. For the same molecule, the “HDAC6 activity raw data (signal)” value (HDAC6; Conc. 1.37E-08 M, t1) was 1690122, the “HDAC6 activity raw data (signal)” value (HDAC6; Conc. 1.37E-08 M, t2) was 1641196 and the “HDAC6 activity raw data (signal)” value (HDAC6; Conc. 1.52E-09 M, t1) was 1700998. For the same molecule, the “HDAC6 activity raw data (signal)” value (HDAC6; Conc. 1.52E-09 M, t2) was 1770848, the “HDAC6 activity raw data (signal)” value (HDAC6; Conc. 3.33E-06 M, t1) was 689811 and the “HDAC6 activity raw data (signal)” value (HDAC6; Conc. 3.33E-06 M, t2) was 662211. For the same molecule, the “HDAC6 activity raw data (signal)” value (HDAC6; Conc. 3.70E-07 M, t1) was 1440305, the “HDAC6 activity raw data (signal)” value (HDAC6; Conc. 3.70E-07 M, t2) was 1367836 and the “HDAC6 activity raw data (signal)” value (HDAC6; Conc. 4.12E-08 M, t1) was 1630143. The “HDAC6 activity raw data (signal)” value (HDAC6; Conc. 4.12E-08 M, t2) was 1649164, the “HDAC6 activity raw data (signal)” value (HDAC6; Conc. 4.57E-09 M, t1) was 1710532 and the “HDAC6 activity raw data (signal)” value (HDAC6; Conc. 4.57E-09 M, t2) was 1671153. The “HDAC6 activity raw data (signal)” value (HDAC6; Conc. 5.08E-10 M, t1) was 1797804 and the “HDAC6 activity raw data (signal)” value (HDAC6; Conc. 5.08E-10 M, t2) was 1739375.
